Data reported in ChEMBL document CHEMBL1140165, “Rotationally constrained 2,4-diamino-5,6-disubstituted pyrimidines: a new class of histamine H4 receptor antagonists with improved druglikeness and in vivo efficacy in pain and inflammation models” (J Med Chem, 2008).
Activity calls are given as the source filed them. No cut-off for these calls is given here.

Experiments:
[1] = Fractional bioavailability in rat at 5 mg/kg, iv and 5 mg/kg, po; assay type: ADME, organism-based; conditions: in vivo
[2] = Terminal volume of distribution in rat at 10 mg/kg, iv; assay type: ADME, organism-based; design: dose 10 mg/kg, route intravenous; conditions: in vivo, read-out: Vbeta
[3] = Fractional bioavailability in rat at 10 mg/kg, iv and 10 mg/kg, po; assay type: ADME, organism-based; conditions: in vivo
[4] = Ratio of drug level in brain to plasma in rat at 10 mg/kg, iv after 30 mins; assay type: ADME, organism-based; design: dose 10 mg/kg, route intravenous
BMMC = experiment: Blockade of histamine-induced morphological changes in BALB/c mouse BMMC by flow cytometry; assay type: functional, cell-based
[5] = Blood clearance in mouse at 5 mg/kg, iv; assay type: ADME, organism-based; design: dose 5 mg/kg, route intravenous; conditions: whole blood
[6] = Selectivity ratio of Ki for human histamine H4 receptor to Ki for 5HT2A receptor
Histamine H4 receptor [7] = molecular target: T1, Histamine H4 receptor (Homo sapiens, UniProt Q9H3N8); experiment: Displacement of [3H]histamine from human histamine H4 receptor expressed in HEK293 cells; assay type: cell-based
T1 sequence (Q9H3N8 whole entry): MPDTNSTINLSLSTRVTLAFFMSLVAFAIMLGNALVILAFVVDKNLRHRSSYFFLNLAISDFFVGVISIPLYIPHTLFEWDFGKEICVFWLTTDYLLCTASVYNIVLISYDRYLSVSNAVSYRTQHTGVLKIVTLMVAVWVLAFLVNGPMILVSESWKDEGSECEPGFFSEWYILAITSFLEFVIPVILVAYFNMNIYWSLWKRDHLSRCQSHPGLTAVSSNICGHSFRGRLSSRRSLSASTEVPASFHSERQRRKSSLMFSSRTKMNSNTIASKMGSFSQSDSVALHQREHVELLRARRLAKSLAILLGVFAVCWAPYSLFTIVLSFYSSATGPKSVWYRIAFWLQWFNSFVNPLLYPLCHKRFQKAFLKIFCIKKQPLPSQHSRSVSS

Cytochrome P450 3A4 = Cytochrome P450 3A4 (Homo sapiens, UniProt P08684); experiment: Inhibition of CYP3A4 upto 10 uM; assay type: ADME
Sequence of Cytochrome P450 3A4 (P08684 whole entry): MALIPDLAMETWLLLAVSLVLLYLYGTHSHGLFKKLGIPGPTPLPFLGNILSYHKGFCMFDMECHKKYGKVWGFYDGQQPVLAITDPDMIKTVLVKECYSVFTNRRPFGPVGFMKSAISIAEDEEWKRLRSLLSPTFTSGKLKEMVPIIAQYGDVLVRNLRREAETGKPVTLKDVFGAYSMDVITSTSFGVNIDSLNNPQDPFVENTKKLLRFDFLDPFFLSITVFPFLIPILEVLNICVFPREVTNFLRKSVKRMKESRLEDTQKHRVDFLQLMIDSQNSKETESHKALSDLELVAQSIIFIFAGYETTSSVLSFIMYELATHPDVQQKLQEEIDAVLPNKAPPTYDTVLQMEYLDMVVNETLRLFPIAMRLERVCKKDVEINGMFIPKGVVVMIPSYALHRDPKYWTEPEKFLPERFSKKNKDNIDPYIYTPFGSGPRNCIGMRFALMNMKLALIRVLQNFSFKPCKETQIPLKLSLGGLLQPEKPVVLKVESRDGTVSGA

[8] = Selectivity ratio of Ki for human histamine H4 receptor to Ki for histamine H2 receptor
[9] = Half life in mouse at 5 mg/kg, iv; assay type: ADME, organism-based; design: dose 5 mg/kg, route intravenous; conditions: in vivo
[10] = Metabolic stability in mouse liver microsomes; assay type: ADME, Microsome
Histamine H4 receptor [11] = molecular target: T1, Histamine H4 receptor; conditions: HEK293
Cytochrome P450 2C9 = Cytochrome P450 2C9 (Homo sapiens, UniProt P11712); experiment: Inhibition of CYP2C9 upto 10 uM; assay type: ADME
Sequence of Cytochrome P450 2C9 (P11712 whole entry): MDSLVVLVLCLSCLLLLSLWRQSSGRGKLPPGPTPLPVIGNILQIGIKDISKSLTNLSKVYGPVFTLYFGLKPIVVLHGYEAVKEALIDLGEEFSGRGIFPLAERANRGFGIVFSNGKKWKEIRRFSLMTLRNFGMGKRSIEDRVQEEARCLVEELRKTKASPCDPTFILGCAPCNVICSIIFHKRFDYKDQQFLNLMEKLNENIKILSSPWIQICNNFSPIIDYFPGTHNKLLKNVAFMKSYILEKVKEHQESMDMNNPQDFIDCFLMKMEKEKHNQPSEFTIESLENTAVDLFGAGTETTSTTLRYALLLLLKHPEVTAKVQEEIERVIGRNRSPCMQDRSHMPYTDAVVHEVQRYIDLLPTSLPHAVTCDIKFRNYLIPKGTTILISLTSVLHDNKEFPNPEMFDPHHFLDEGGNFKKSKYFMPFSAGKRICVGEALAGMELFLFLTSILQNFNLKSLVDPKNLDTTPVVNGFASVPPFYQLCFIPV

Histamine H4 receptor [12] = molecular target: T2, Histamine H4 receptor (Rattus norvegicus, UniProt Q91ZY1); experiment: Antagonist activity at rat histamine H4 receptor expressed in HEK293 cells assessed as inhibition of histamine-induced intracellular calcium elevation by FLIPR assay; assay type: functional, cell-based
T2 sequence (Q91ZY1 whole entry): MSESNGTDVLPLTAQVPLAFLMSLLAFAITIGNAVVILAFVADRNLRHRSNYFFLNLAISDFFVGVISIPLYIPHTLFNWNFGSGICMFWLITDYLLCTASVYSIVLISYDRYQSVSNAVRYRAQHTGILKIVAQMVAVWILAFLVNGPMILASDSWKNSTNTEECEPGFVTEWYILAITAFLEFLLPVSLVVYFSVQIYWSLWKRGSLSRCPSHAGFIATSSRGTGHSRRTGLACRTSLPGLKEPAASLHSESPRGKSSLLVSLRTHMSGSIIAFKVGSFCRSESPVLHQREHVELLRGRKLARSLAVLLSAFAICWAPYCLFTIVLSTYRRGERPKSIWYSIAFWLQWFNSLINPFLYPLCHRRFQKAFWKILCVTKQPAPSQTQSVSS

[13] = Selectivity ratio of Ki for human histamine H4 receptor to Ki for dopamine D2 receptor
[14] = Selectivity ratio of Ki for human histamine H4 receptor to Ki for 5HT1A receptor
Mus musculus [15] = experiment: Antiinflammatory activity against ip dosed BALB/c mouse assessed as inhibition of zymosan-induced peritonitis after 2 hrs pretreated 30 mins before zymosan challenge; assay type: functional
[16] = Half life in rat at 10 mg/kg, iv; assay type: ADME, organism-based; design: dose 10 mg/kg, route intravenous; conditions: in vivo
[17] = Protein binding in human; assay type: ADME, organism-based; conditions: in vivo, read-out: PB (converted)
[18] = Terminal volume of distribution in mouse at 5 mg/kg, iv; assay type: ADME, organism-based; design: dose 5 mg/kg, route intravenous; conditions: in vivo, read-out: Vbeta
Liver microsomes [19] = experiment: Metabolic stability in rat liver microsomes; assay type: ADME, Microsome
Mus musculus [20] = experiment: Inhibition of clobenpropit-induced itching in ip dosed CD1/ICR mouse assessed as blockade of scratching in hind paw for 25 mins pretreated 30 mins before clobenpropit challenge; assay type: functional
Homo sapiens = species on record: Homo sapiens; experiment: Selectivity ratio of Ki for human histamine H4 receptor to Ki for human histamine H3 receptor
[21] = Blood clearance in rat at 10 mg/kg, iv; assay type: ADME, organism-based; design: dose 10 mg/kg, route intravenous; conditions: whole blood
[22] = Protein binding in rat; assay type: ADME, organism-based; conditions: in vivo, read-out: PB (converted)
Liver microsomes [23] = experiment: Metabolic stability in human liver microsomes; assay type: ADME, Microsome
[24] = Selectivity ratio of Ki for human histamine H4 receptor to Ki for adrenergic alpha1 receptor
Histamine H4 receptor [25] = molecular target: T3, Histamine H4 receptor (Mus musculus, UniProt Q91ZY2); experiment: Antagonist activity at mouse histamine H4 receptor expressed in HEK293 cells assessed as inhibition of histamine-induced intracellular calcium elevation by FLIPR assay; assay type: functional, cell-based
T3 sequence (Q91ZY2 whole entry): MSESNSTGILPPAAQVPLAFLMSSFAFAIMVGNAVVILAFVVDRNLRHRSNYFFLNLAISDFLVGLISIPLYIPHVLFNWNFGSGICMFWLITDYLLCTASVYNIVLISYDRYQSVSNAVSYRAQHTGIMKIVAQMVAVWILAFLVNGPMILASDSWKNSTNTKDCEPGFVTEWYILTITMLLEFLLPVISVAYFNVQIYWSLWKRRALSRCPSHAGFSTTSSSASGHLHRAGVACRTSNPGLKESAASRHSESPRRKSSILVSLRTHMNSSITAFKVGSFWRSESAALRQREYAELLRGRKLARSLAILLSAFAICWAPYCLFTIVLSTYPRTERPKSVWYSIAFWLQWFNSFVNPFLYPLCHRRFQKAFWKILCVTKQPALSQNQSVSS

Histamine H4 receptor [26] = molecular target: T2, Histamine H4 receptor; experiment: Displacement of [3H]histamine from rat histamine H4 receptor expressed in HEK293 cells; assay type: cell-based
Cytochrome P450 2D6 = Cytochrome P450 2D6 (Homo sapiens, UniProt P10635); experiment: Inhibition of CYP2D6 upto 10 uM; assay type: ADME
Sequence of Cytochrome P450 2D6 (P10635 whole entry): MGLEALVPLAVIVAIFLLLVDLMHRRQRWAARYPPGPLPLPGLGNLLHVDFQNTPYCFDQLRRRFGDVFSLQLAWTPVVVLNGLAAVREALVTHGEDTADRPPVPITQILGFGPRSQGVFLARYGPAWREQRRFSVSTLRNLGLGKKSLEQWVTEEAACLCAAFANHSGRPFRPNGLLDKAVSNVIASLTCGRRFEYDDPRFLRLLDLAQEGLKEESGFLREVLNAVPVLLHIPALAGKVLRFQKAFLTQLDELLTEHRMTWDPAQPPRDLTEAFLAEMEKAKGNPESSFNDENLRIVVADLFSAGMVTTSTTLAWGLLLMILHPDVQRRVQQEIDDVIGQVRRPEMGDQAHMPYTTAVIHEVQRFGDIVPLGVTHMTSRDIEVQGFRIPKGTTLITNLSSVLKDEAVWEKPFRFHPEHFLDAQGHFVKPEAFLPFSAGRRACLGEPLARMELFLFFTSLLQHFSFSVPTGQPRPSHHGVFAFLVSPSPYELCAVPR

[27] = Selectivity ratio of Ki for human histamine H4 receptor to Ki for histamine H1 receptor
[28] = Selectivity ratio of Ki for human histamine H4 receptor to Ki for 5HT1D receptor
[29] = Half life in mouse at 20 mg/kg, sc; assay type: ADME, organism-based; design: dose 20 mg/kg, route subcutaneous; conditions: in vivo
[30] = Cmax in mouse at 20 mg/kg, sc; assay type: ADME, organism-based; design: dose 20 mg/kg, route subcutaneous; conditions: in vivo
[31] = AUC (0 to infinity) in mouse at 5 mg/kg, iv; assay type: ADME, organism-based; design: time infinity, dose 5 mg/kg, route intravenous; conditions: plasma
[32] = Cmax in mouse at 5 mg/kg, iv; assay type: ADME, organism-based; design: dose 5 mg/kg, route intravenous; conditions: in vivo
[33] = Oral bioavailability in mouse at 20 mg/kg, sc; assay type: ADME, organism-based; conditions: in vivo, subcutaneous
[34] = Tmax in mouse at 20 mg/kg, sc; assay type: ADME, organism-based; design: dose 20 mg/kg, route subcutaneous; conditions: in vivo
[35] = AUC (0 to t) in mouse at 5 mg/kg, iv; assay type: ADME, organism-based; design: dose 5 mg/kg, route intravenous; conditions: plasma
[36] = Tmax in mouse at 5 mg/kg, iv; assay type: ADME, organism-based; design: dose 5 mg/kg, route intravenous; conditions: in vivo
[37] = AUC (0 to t) in mouse at 20 mg/kg, sc; assay type: ADME, organism-based; design: dose 20 mg/kg, route subcutaneous; conditions: plasma
Mus musculus [38] = experiment: Plasma clearance in mouse at 5 mg/kg, iv; assay type: ADME, organism-based; design: dose 5 mg/kg, route intravenous; conditions: in vivo
[39] = AUC (0 to infinity) in mouse at 20 mg/kg, sc; assay type: ADME, organism-based; design: time infinity, dose 20 mg/kg, route subcutaneous; conditions: plasma

## Nc1nc2c(c(N3CCNCC3)n1)CCCc1ccccc1-2
[1]
  bioavailability: 33%
[2]
  Vd: 19.9 L/kg
[3]
  bioavailability: 37%
[4]
  Kp at 0.5 h: 2.1
BMMC
  Activity: Active
[5]
  clearance: 378 mL/min/kg
[6]
  Ratio Ki: > 185
Histamine H4 receptor [7]; read-out: Ki
  Ki: 0.071 µM
Cytochrome P450 3A4
  Activity: Not Active
[8]
  Ratio Ki: > 130
[9]
  half-life: 4.9 h
[10]
  Stability: 14 pmol/min/mg
Histamine H4 receptor [11]
  pKb: 7.13
Cytochrome P450 2C9
  Activity: Not Active
Histamine H4 receptor [12]
  EC50: 0.0148 µM
[13]
  Ratio Ki: > 140
[14]
  Ratio Ki: 13
Mus musculus [15]
  ED50: 21 µmol/kg
[16]
  half-life: 2.2 h
[17]
  fraction unbound: 0.56
[18]
  Vd: 88.9 L/kg
Liver microsomes [19]
  Stability: 95.4 pmol/min/mg
Mus musculus [20]
  ED50: > 72 µmol/kg
Homo sapiens
  Ratio Ki: 52
[21]
  clearance: 102 mL/min/kg
[22]
  fraction unbound: 0.42
Liver microsomes [23]
  Stability: 14.5 pmol/min/mg
[24]
  Ratio Ki: 110
Histamine H4 receptor [25]
  EC50: 0.0182 µM
Histamine H4 receptor [26]
  Ki: 0.00759 µM
Cytochrome P450 2D6
  Activity: Not Active
[27]
  Ratio Ki: > 93
[28]
  Ratio Ki: 17

## O=C(c1cc2cc(Cl)ccc2[nH]1)N1CCNCC1
Histamine H4 receptor [7]; read-out: pKi (converted)
  Ki: 0.0257 µM
Cytochrome P450 3A4
  Activity: Not Active
[29]
  half-life: 0.86 h
[30]
  Cmax: 2000 nM
[9]
  half-life: 1.63 h
[10]
  Stability: 31.6 pmol/min/mg
Histamine H4 receptor [11]
  pKb: 7.74
[31]
  AUC(0-inf): 3.04 µM·h
Cytochrome P450 2C9
  Activity: Not Active
Histamine H4 receptor [12]
  EC50: 0.0309 µM
[17]
  fraction unbound: 0.42
Liver microsomes [19]
  Stability: 61.4 pmol/min/mg
[32]
  Cmax: 1120 nM
[33]
  bioavailability: 0%
[34]
  Tmax: 2 h
[22]
  fraction unbound: 0.35
Liver microsomes [23]
  Stability: 26.6 pmol/min/mg
Histamine H4 receptor [25]
  EC50: 0.0178 µM
[35]
  AUC(0-t): 3.03 µM·h
Histamine H4 receptor [26]
  Ki: 0.00398 µM
Cytochrome P450 2D6
  Activity: Not Active
[36]
  Tmax: 0.5 h
[37]
  AUC(0-t): 11.8 µM·h
Mus musculus [38]
  Activity: Not Active
[39]
  AUC(0-inf): 11.8 µM·h
